# Assay results published in patent US20210205322A1, “RICTOR-TARGETED THERAPY IN THE MANAGEMENT OF BRAIN METASTASES” (Albert Einstein College of Medicine, priority 2020, published 2021).
# Entries after “also recorded” stand apart in the source; their conditions may differ.
# How the values were obtained:
# [1] = system: HCC827 OE cells; experiment: Transwell cell migration and invasion assay in HCC827 OE cells; type: cell-based; conditions: migration and invasion promoted by RICTOR upregulation (doxycycline)
# Protocol: (§1) In vitro Cell Migration and Invasion Assay: The transwell assay was performed according to manufacturer's protocol (Corning, N.Y.). Briefly, the cells were starved for 24 hours and then seeded on the transwell insert (Corning, N.Y.) in 12-well plates. The bottom of the well contained medium with 10% FBS. After 24 hours, the bottom of the inserts were fixed with 70% ethanol and stained with 0.5% crystal violet. The cells were counted triplicate under microscope.
# (§2) In the invasion assay, matrigel (0.8 mg/ml) layer was added on the transwell insert first. After the matrigel layer was solidified, the experiment was performed in the same way as the migration assay.
# [2] = system: RICTOR-amplified H23 lung cancer cells; experiment: Transwell cell migration and invasion assay in H23 cells; type: cell-based; conditions: in vitro; FIG. 7C
# Protocol: as §1, §2
# [3] = system: RICTOR-amplified H1703 lung cancer cells; experiment: Transwell cell migration and invasion assay in H1703 cells; type: cell-based; conditions: in vitro; FIG. 7C
# Protocol: as §1, §2
# [4] = system: H23 lung cancer cells labeled with luciferase reporter gene; experiment: In vivo metastasis assay, stereotactic brain injection model; parameters: species or system mouse
# Description: To further test whether RICTOR amplification affects in vivo metastasis, either the inducible H23-R4 or the parental H23 lung cancer cells labeled with luciferase reporter gene (H23-R4-Luc) were implanted in mouse brain stereotactically.
# [5] = system: PC9 parental cells; experiment: Cell growth assay, combined treatment of sapanisertib and EGFR TKIs; conditions: sapanisertib 5 nM combined with erlotinib, afatinib or osimertinib; FIG. 3C
# Protocol: Clonogenic Survival Assay: Logarithmically growing cells were plated in triplicate. All drugs were added for 72 hours and withdrawn afterwards. After 10-14 days, colonies were fixed with 70% EtOH and stained with 0.5% crystal violet (Sigma Aldrich, St Louis, Mo.). Surviving colonies were defined as colonies containing >50 cells.
# [6] = system: PC9-R4; experiment: Drug response by clonogenic survival assay in inducible RICTOR knockdown PC9-R4 cells; type: cell-based; conditions: for inhibitory effects on cell proliferation: RICTOR knockdown cells vs no knockdown
# [7] = system: lung cancer cell; experiment: Cell proliferation with AKT inhibitors; type: cell-based; conditions: 24-hour treatment
# Description: (§3) AKT is a downstream effector of the RICTOR-mTOCR2 pathway, to determine its role in RICTOR-mediated metastasis, the effects of two structurally different AKT inhibitors, AR-42 and ipatasertib were inestigated.
# [8] = system: lung cancer cell; experiment: Invasion and migration with AKT inhibitors; type: cell-based; conditions: for invasion and migration: AKT inhibitor added to inducible RICTOR knockdown; for lung cancer cell invasion and migration: AKT inhibitor alone, FIG. 10A-E
# Protocol: as §1, §2, §3
# [9] = system: lung cancer cell; experiment: Apoptosis (cleaved PARP) with AKT inhibitors; type: cell-based; conditions: for apoptosis: AKT inhibitor added to inducible RICTOR knockdown; for apoptosis (cleaved PARP): AKT inhibitor alone
# Protocol: (§4) Immunoblotting and Antibodies: All antibodies were purchased from Cell Signaling Technology (Boston, Mass.). Cell lysate was harvested using RIPA buffer and the supernatant was subjected for following steps after centrifugation. Proteins were subjected to 10% SDS-PAGE gel and transferred onto […] nitrocellulose membrane (Biorad, Calif., USA) for western blot analysis. After incubation with primary antibody overnight at 4° C., the membrane was washed and incubated with secondary antibodies. The final blots were developed with a chemiluminesence system (Promega, Wis., USA).
# as §3
# [10] = system: lung cancer cell; experiment: SDF-1α-induced invasion and migration (CXCR4 pathway); type: cell-based
# Protocol: as §1, §2
# [11] = system: ER cells; experiment: ER mouse tumor xenograft model; type: in vivo, mice
# Protocol: Xenograft Mouse Studies: Athymic mice (Envigo Laboratory, male, 6-8 weeks old) were inoculated subcutaneously with 5×10^6 NSCLC cells. After 2 days, mice were divided into a vehicle control (water) group and a doxycycline group, with 6 mice in each group. Doxycycline was administered by oral gavage: 100 mg/kg/day. The same volume of water was given to the control group. A total of 20 daily doses were administered in 4 weeks. […] Tumors were measured with calipers twice weekly and the size was calculated as length×width^2/2. The protocol was approved by the Institutional Animal Care and Use Committee.
# The in vivo mouse tumor xenograft model was performed using ER cells.
# [12] = system: erlotinib-resistant HCC827 cell line (ER); experiment: MTS cell viability and clonogenic survival assays in erlotinib-resistant HCC827 cells (ER); type: cell-based; conditions: Axl-overexpressed ER; FIG. 1I and 1J
# Protocol: Cell Growth and Viability Assay: The MTS proliferation assay was performed as described in manufacture protocol (Promega, Wis., USA). Cells were seeded at a density of 2000 cells per well in 96-well plates. After incubating with drugs for 72 hours, MTS reagent was added and the absorbance was measured at 490 nm. Viable cell numbers were determined using the MTS assay kit according to the manufacturer's protocol.
# [13] = system: HCC827 OE; conditions: RICTOR upregulation with doxycycline; FIG. 2C
# Protocol: Next, it was determined whether RICTOR upregulation could result in EGFR TKI resistance. A doxycycline-inducible RICTOR upregulation model in HCC827 cells (HCC827 OE) was generated.
# [14] = system: HCC827-R4
# [15] = system: ER3-R4; experiment: Western blot analysis (c-PARP) of osimertinib-treated ER3-R4 cells; type: cell-based; conditions: osimertinib-treated cells with RICTOR knockdown; osimertinib 0.5 μM; FIG. 4D
# Protocol: as §4
# To evaluate whether RICTOR-induced Axl upregulation was a common resistant mechanism for EGFR TKIs, Axl signaling in osimertinib-treated ER3-R4 and HCC827 OE cells was examined. […] Taken together, RICTOR positively regulates EGFR TKI resistance by upregulating Axl expression, which seems to be a common resistance mechanism shared by EGFR TKIs.
# [16] = system: HCC827 OE cells; experiment: Western blot analysis (c-PARP) of osimertinib-treated HCC827 OE cells; type: cell-based; conditions: osimertinib-treated cells with RICTOR upregulation; osimertinib 50 nM; FIG. 4D
# Protocol: Immunoblotting and Antibodies: All antibodies were purchased from Cell Signaling Technology (Boston, Mass.). Cell lysate was harvested using RIPA buffer and the supernatant was subjected for following steps after centrifugation. Proteins were subjected to 10% SDS-PAGE gel and transferred onto 0.45 μM nitrocellulose membrane (Biorad, Calif., USA) for western blot analysis. After incubation with primary antibody overnight at 4° C., the membrane was washed and incubated with secondary antibodies. The final blots were developed with a chemiluminesence system (Promega, Wis., USA).
compound,measurement,setting,value
"CC(C)n1nc(-c2ccc3oc(N)nc3c2)c2c(N)ncnc21 [TAK228, 5-(4-amino-1-propan-2-yl-3-pyrazolo[3,4-d]pyrimidinyl)-1,3-benzoxazol-2-amine]",cell migration and invasion,[1],inhibited
same,migration and invasion,[2],significantly reduced
same,migration and invasion,[3],significantly reduced
same,reduction of tumor growth in the brain,"[4]; P<0.01, FIG. 8B",approximately 75%
same,near complete responses,"[4]; after 4 weeks of daily oral lavage, 3 out 7",43%
same,tumor growth in the brain,[4]; result in words,remarkably reduced the lung cancer growth in the brain; also recorded: significantly reduced tumor growth in the brain
same,sensitivity of EGFR TKIs in combined treatment,[5],significantly improved the sensitivity of all three inhibitors
CN(C)C/C=C/C(=O)Nc1cc2c(Nc3ccc(F)c(Cl)c3)ncnc2cc1O[C@H]1CCOC1 [afatinib],decrease of IC50 upon RICTOR knockdown,"[6]; PC-9 cells, FIG. 3B",> 10 fold
"Nc1cc(C(F)(F)F)c(-c2nc(N3CCOCC3)nc(N3CCOCC3)n2)cn1 [PQR309, 5-(4,6-dimorpholin-4-yl-1,3,5-triazin-2-yl)-4-(trifluoromethyl)pyridin-2-amine]",migration and invasion,[2],significantly reduced
same,migration and invasion,[3],significantly reduced
CC(C)NC[C@@H](C(=O)N1CCN(c2ncnc3c2[C@H](C)C[C@H]3O)CC1)c1ccc(Cl)cc1 [ipatasertib],change in cell proliferation,[7],did not result in significant change
same,invasion and migration,[8],significantly further reduced
same,lung cancer cell invasion and migration,[8],significantly decreased
same,apoptosis,[9],more pronounced apoptosis
same,apoptosis (cleaved PARP),[9],increased apoptosis
CC(C)[C@H](C(=O)Nc1ccc(C(=O)NO)cc1)c1ccccc1 [AR-42],change in cell proliferation,[7],did not result in significant change
same,invasion and migration,[8],significantly further reduced
same,lung cancer cell invasion and migration,[8],significantly decreased
same,apoptosis,[9],more pronounced apoptosis
same,apoptosis (cleaved PARP),[9],increased apoptosis
"CNC(=O)c1cccc(-c2ccc3c(N4CCOC[C@@H]4C)nc(N4CCOC[C@@H]4C)nc3n2)c1 [AZD2014, 3-[2,4-bis[(3S)-3-methylmorpholin-4-yl]pyrido[2,3-d]pyrimidin-7-yl]-N-methylbenzamide]",migration and invasion,[2],significantly reduced
same,migration and invasion,[3],significantly reduced
c1cc(CN2CCCNCCNCCCNCC2)ccc1CN1CCCNCCNCCCNCC1 [AMD3100],SDF-1α-induced invasion and migration,[10]; FIG. 11B and C,significantly reduced
SDF-1α,migration and invasion,[10]; activation of the CXCR4 pathway by treatment with SDF-1α,increased migration and invasion
C#Cc1cccc(Nc2ncnc3cc(OCCOC)c(OCCOC)cc23)c1 [erlotinib],expression of Axl in xenograft tumors,"[11]; combination treatment (RICTOR knockdown and erlotinib), western blot of tumor lysate, FIG. 1H",lowest expression of Axl
same,tumor growth,"[11]; combined treatment (RICTOR knockdown by doxycycline and erlotinib), vs either approach alone, P<0.05",markedly blocked tumor growth
same,tumor growth,"[11]; erlotinib alone, four weeks of treatment, oral gavage daily",failed to inhibit tumor growth
same,inhibitory effects on cell proliferation,[6],higher inhibitory effects
C=CC(=O)Nc1cc(Nc2nccc(-c3cn(C)c4ccccc34)n2)c(OC)cc1N(C)CCN(C)C [osimertinib],drug response of ER,[12],resistance to both inhibitors
same,resistance compared to parental HCC827 cells,[13],more resistant
same,decrease of IC50 upon RICTOR knockdown,[14],> 10 fold
same,inhibitory effects on cell proliferation,[14],higher inhibitory effects
same,inhibitory effects on cell proliferation,[6],higher inhibitory effects
same,apoptosis (c-PARP),[15],more pronounced apoptosis
same,apoptosis,[16],less apoptosis
